*1 amine or outer side, *2 acyl side, *3 side chain or, on linkers, in order; H or OH if unused. Where a SMILES comes first, the peptide text is derived from it. Bridges are numbered along the chain shown (N, C = ends). Roman numbers before positions name the chains, in order. [ ]: non-standard residue; d: D form. 2Nal = N[C@@H](Cc1ccc2ccccc2c1)C(=O)O; Diglycolyl = O=C(COCC(=O)[*:2])[*:1]; NMeR = CN[C@@H](CCCNC(=N)N)C(=O)O; X1 = O=C(c1ccccc1C[*:2])[*:1]; Pen = CC(C)(S)[C@H](N)C(=O)O
Tests used:
[1] = Simulated Intestinal Fluid (SIF) Stability Assay; type: in vitro ADME; conditions: 37° C.; for half-life: simulated gi fluid, porcine pancreatin
Experimental: Simulated Intestinal Fluid (SIF) Stability Assay
Studies were carried out in simulated intestinal fluid (SIF) to evaluate intestinal stability of the peptide molecules of the instant invention. To prepare the SIF reagent, blank FASSIF was prepared by dissolving 0.348 g NaOH, 3.954 g sodium phosphate monobasic monohydrate and 6.186 g NaCl in a final volume of 1 liter water (final pH=6.5). To this solution, 24 g porcine pancreatin (Sigma catalog P7545) was added and stirred for 30 minutes (final pancreatin concentration is 2.4%). The solution was filtered through a cheese cloth and a No. 1 Whatman filter, and 10 ml aliquots were stored at −70° C. To run the reaction, a 10 ml aliquot was thawed at 37° C., and 125 μl aliquots were removed and mixed with an equal volume of blank FASSIF. The peptide stock solution (10 mM in 100% DMSO) was diluted 75-fold in blank FASSIF. A 50 μl aliquot of the diluted peptide was combined with 125 μl pancreatin (2.4%) and 125 μl blank FASSIF to yield final concentrations of 1% pancreatin and 22 μM peptide. The reactions were incubated at 37° C., and at various time points 50 μl aliquots were removed and added to 200 μl of quench solution containing 50% acetonitrile, 50% methanol, 5% formic acid, and 1 μg/ml internal standard. The quenched samples were centrifuged at 10,000 rpm for 10 minutes, and the supernatants were analyzed by LCMS/MS. The percent remaining at each time point was calculated based on the peak area response ratio of test to compound to internal standard. Half-lives were calculated by fitting to a first-order exponential decay equation using GraphPad. A small sampling of the results of these studies is provided and discussed herein and in the accompanying figures.

[2] = biological target: T1, RPMI 8866 cells (Homo sapiens, UniProt P13612+P26010); test: α4β7-MAdCAM Cell Adhesion Assay; type: cell-based; conditions: thioether peptide dimers, Table 7; read-out: Cell-Adhesion A4B7
T1 sequence (P13612 34-1032): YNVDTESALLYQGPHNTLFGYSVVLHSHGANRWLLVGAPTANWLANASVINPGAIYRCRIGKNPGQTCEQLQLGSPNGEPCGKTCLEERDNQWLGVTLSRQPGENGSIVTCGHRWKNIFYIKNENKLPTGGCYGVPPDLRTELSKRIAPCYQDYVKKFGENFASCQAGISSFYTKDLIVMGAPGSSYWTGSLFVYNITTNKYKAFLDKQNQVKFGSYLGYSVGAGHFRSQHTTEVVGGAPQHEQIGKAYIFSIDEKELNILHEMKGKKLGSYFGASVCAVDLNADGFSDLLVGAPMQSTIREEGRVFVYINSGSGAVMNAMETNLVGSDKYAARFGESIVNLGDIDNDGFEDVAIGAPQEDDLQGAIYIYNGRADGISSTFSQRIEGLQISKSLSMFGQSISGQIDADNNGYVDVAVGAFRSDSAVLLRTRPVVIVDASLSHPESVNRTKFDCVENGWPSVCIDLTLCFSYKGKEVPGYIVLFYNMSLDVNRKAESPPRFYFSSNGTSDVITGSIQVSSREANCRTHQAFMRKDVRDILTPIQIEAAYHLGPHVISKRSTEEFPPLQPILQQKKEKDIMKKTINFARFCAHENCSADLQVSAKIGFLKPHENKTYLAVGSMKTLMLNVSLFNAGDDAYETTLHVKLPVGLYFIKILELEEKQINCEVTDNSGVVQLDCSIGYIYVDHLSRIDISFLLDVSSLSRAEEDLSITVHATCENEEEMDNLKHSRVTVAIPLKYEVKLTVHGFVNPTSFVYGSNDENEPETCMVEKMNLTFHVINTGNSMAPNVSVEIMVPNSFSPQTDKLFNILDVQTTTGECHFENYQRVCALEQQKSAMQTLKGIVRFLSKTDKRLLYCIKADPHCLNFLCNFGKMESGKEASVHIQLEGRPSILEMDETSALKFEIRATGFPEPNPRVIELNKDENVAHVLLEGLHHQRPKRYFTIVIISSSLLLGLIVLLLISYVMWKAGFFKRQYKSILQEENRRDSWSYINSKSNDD
T1 sequence (P26010 20-798): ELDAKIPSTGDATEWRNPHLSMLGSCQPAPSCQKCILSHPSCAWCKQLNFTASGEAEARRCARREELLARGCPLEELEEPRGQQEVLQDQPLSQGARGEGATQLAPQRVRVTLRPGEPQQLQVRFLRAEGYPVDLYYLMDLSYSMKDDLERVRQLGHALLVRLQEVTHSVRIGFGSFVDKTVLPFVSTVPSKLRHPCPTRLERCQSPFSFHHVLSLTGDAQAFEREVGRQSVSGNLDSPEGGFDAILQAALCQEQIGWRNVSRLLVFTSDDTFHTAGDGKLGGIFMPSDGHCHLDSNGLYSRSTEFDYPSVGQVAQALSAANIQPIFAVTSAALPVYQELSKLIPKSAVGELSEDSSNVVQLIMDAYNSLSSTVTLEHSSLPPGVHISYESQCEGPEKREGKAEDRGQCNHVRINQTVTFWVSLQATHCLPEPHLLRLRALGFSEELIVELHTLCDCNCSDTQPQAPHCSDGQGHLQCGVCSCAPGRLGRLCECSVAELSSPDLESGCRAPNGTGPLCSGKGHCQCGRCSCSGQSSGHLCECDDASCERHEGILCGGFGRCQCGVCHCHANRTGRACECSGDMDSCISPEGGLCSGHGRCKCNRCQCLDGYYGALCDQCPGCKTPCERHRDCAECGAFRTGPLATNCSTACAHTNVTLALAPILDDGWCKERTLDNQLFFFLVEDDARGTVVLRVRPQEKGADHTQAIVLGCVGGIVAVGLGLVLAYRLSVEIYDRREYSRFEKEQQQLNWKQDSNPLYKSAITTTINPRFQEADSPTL
How it was run: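 Peptide inhibition of adhesion measured with MAdCAM-1/Fc chimera immobilised at 200 ng/well and MnCl2-activated (1 mM) RPMI 8866 cells, 30-45 min at 37° C. Adherent cells remaining after three washes detected by MTT reduction at 570 nm, corrected for no-cell wells, giving dose response.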

SMILES	half-life ([1]; dimers, Table 7) [h]	half-life ([1]; monomers, Table 6) [h]	other results
CCCC[C@@H]1NC(=O)[C@H]([C@@H](C)O)NC(=O)[C@H](CC(=O)O)NC(=O)[C@H](CO)NC(=O)[C@H](CCCNC(=N)N)N(C)C(=O)c2ccccc2CSC(C)(C)[C@@H](C(=O)N[C@@H](Cc2c[nH]c3ccccc23)C(=O)N[C@@H](CCC(=O)O)C(=O)N[C@H](CCCCN)C(N)=O)NC1=O [compound 154] (HELM PEPTIDE1{[meR].S.D.T.[Nle].[Pen].W.E.[dK].[am]}|CHEM1{[O=C(c1ccccc1C[*:2])[*:1]]}$PEPTIDE1,CHEM1,1:R1-1:R1|PEPTIDE1,CHEM1,6:R3-1:R2$$$V2.0)	< 0.333		
CC(C)C[C@@H]1NC(=O)[C@H]([C@@H](C)O)NC(=O)[C@H](CC(=O)O)NC(=O)[C@H](CO)NC(=O)[C@H](CCCNC(=N)N)N(C)C(=O)c2ccccc2CSC(C)(C)[C@@H](C(=O)N[C@@H](Cc2c[nH]c3ccccc23)C(=O)N[C@H](CCC(=O)O)C(=O)N[C@H](CCCCN)C(N)=O)NC1=O [compound 60] (HELM PEPTIDE1{[meR].S.D.T.L.[Pen].W.[dE].[dK].[am]}|CHEM1{[O=C(c1ccccc1C[*:2])[*:1]]}$PEPTIDE1,CHEM1,1:R1-1:R1|PEPTIDE1,CHEM1,6:R3-1:R2$$$V2.0)		> 3	
CC(C)C[C@@H]1NC(=O)[C@H]([C@@H](C)O)NC(=O)[C@H](CC(=O)O)NC(=O)[C@H](CO)NC(=O)[C@H](CCCNC(=N)N)N(C)C(=O)c2ccccc2CSC(C)(C)[C@@H](C(=O)N[C@H](Cc2ccccc2)C(=O)N[C@@H](Cc2ccc3ccccc3c2)C(=O)N[C@H](CCCCNC(=O)COCC(=O)NCCCC[C@@H](NC(=O)[C@H](Cc2ccc3ccccc3c2)NC(=O)[C@@H](Cc2ccccc2)NC(=O)[C@H]2NC(=O)[C@H](CC(C)C)NC(=O)[C@H]([C@@H](C)O)NC(=O)[C@H](CC(=O)O)NC(=O)[C@H](CO)NC(=O)[C@H](CCCNC(=N)N)N(C)C(=O)c3ccccc3CSC2(C)C)C(N)=O)C(N)=O)NC1=O [compound 162] (I: [NMeR]SDTL[Pen][dF][2Nal][dK]-NH2 / II: [NMeR]SDTL[Pen][dF][2Nal][dK]-NH2; linker I:9-II:9 via Diglycolyl; linker I:N-I:6, II:N-II:6 via X1)			half-life at 22 μM ([1]; pig, simulated intestinal fluid (SIF) with 1% porcine pancreatin, pH 6.5, porcine pancreatin, dimers, Table 7): > 3 h; IC50 [2]: 100 to 1000 nM
CC(C)C[C@@H]1NC(=O)[C@H]([C@@H](C)O)NC(=O)[C@H](CC(=O)O)NC(=O)[C@H](CO)NC(=O)[C@H](CCCNC(=N)N)N(C)C(=O)c2ccccc2CSC(C)(C)[C@@H](C(=O)N[C@@H](Cc2c[nH]c3ccccc23)C(=O)N[C@@H](Cc2ccc(O)cc2)C(=O)N(C)[C@@H](CCCCN)C(N)=O)NC1=O [compound 63] (HELM PEPTIDE1{[meR].S.D.T.L.[Pen].W.Y.[meK].[am]}|CHEM1{[O=C(c1ccccc1C[*:2])[*:1]]}$PEPTIDE1,CHEM1,1:R1-1:R1|PEPTIDE1,CHEM1,6:R3-1:R2$$$V2.0)		> 3	
CC(C)C[C@@H]1NC(=O)[C@H]([C@@H](C)O)NC(=O)[C@H](CC(=O)O)NC(=O)[C@H](CO)NC(=O)[C@H](CCCNC(=N)N)N(C)C(=O)c2ccccc2CSC(C)(C)[C@@H](C(=O)N[C@@H](Cc2c[nH]c3ccccc23)C(=O)N[C@@H](CCC(=O)O)C(=O)N[C@H](CCCCN)C(N)=O)NC1=O [compound 56] (HELM PEPTIDE1{[meR].S.D.T.L.[Pen].W.E.[dK].[am]}|CHEM1{[O=C(c1ccccc1C[*:2])[*:1]]}$PEPTIDE1,CHEM1,1:R1-1:R1|PEPTIDE1,CHEM1,6:R3-1:R2$$$V2.0)		3.1	
CC(C)C[C@@H]1NC(=O)[C@H]([C@@H](C)O)NC(=O)[C@H](CC(=O)O)NC(=O)[C@H](CO)NC(=O)[C@H](CCCNC(=N)N)N(C)C(=O)c2ccccc2CSC(C)(C)[C@@H](C(=O)N[C@@H](Cc2ccccc2)C(=O)N[C@H](CCC(=O)O)C(=O)N[C@H](CCCCN)C(N)=O)NC1=O [compound 65] (HELM PEPTIDE1{[meR].S.D.T.L.[Pen].F.[dE].[dK].[am]}|CHEM1{[O=C(c1ccccc1C[*:2])[*:1]]}$PEPTIDE1,CHEM1,1:R1-1:R1|PEPTIDE1,CHEM1,6:R3-1:R2$$$V2.0)		> 3	
CC(C)C[C@@H]1NC(=O)[C@H]([C@@H](C)O)NC(=O)[C@H](CC(=O)O)NC(=O)[C@H](CO)NC(=O)[C@H](CCCNC(=N)N)N(C)C(=O)c2ccccc2CSC(C)(C)[C@@H](C(=O)N[C@@H](Cc2c[nH]c3ccccc23)C(=O)N[C@@H](CCC(=O)O)C(=O)N[C@H](CCCCN)C(N)=O)NC1=O [compound 146] (HELM PEPTIDE1{[meR].S.D.T.L.[Pen].W.E.[dK].[am]}|CHEM1{[O=C(c1ccccc1C[*:2])[*:1]]}$PEPTIDE1,CHEM1,1:R1-1:R1|PEPTIDE1,CHEM1,6:R3-1:R2$$$V2.0)	< 0.333		
CCCC[C@@H]1NC(=O)[C@H]([C@@H](C)O)NC(=O)[C@H](CC(=O)O)NC(=O)[C@H](CO)NC(=O)[C@H](CCCNC(=N)N)N(C)C(=O)c2ccccc2CSC(C)(C)[C@@H](C(=O)N[C@@H](Cc2c[nH]c3ccccc23)C(=O)N[C@@H](CCC(=O)O)C(=O)N[C@H](CCCCN)C(N)=O)NC1=O [compound 64] (HELM PEPTIDE1{[meR].S.D.T.[Nle].[Pen].W.E.[dK].[am]}|CHEM1{[O=C(c1ccccc1C[*:2])[*:1]]}$PEPTIDE1,CHEM1,1:R1-1:R1|PEPTIDE1,CHEM1,6:R3-1:R2$$$V2.0)		2.98	
CC(C)C[C@@H]1NC(=O)[C@H]([C@@H](C)O)NC(=O)[C@H](CC(=O)O)NC(=O)[C@H](CO)NC(=O)[C@H](CCCNC(=N)N)N(C)C(=O)c2ccccc2CSC(C)(C)[C@@H](C(=O)N[C@@H](Cc2c[nH]c3ccccc23)C(=O)N[C@@H](Cc2ccc(O)cc2)C(=O)N(C)[C@@H](CCCCN)C(N)=O)NC1=O [compound 153] (HELM PEPTIDE1{[meR].S.D.T.L.[Pen].W.Y.[meK].[am]}|CHEM1{[O=C(c1ccccc1C[*:2])[*:1]]}$PEPTIDE1,CHEM1,1:R1-1:R1|PEPTIDE1,CHEM1,6:R3-1:R2$$$V2.0)	> 3		
